Measurements: patent US5075336A, “Alkaline earth metal salts of oxa polyacid compounds” (Adir et Compagnie, priority 1990, dated 1991)
Read-outs that look alike come from different tables or passages of the source. Each block holds one molecule with its values, some of them ahead of it.

Assays:
[1] = test system: Demi-calvarias of newly born mice; test: Osseous formation in tissue culture: incorporation of tritiated proline (T/C ratio); format: cell-based; details: 48 h, n = 7
Method: (§1) The activity on osseous formation and the anti-resorbing activity of compounds potentially active as medicaments may be detected and measured in vitro in tissue culture.
Demi-calvarias of newly born mice (1-2 days) are cultured on gratings in BGJ medium containing tritiated proline. The explants are cultured for 48 h in the presence of the tested compound at 37° C. and at the end of the culture the bones are washed in trichloroacetic acid containing non-radioactive proline in order to remove the ^3 H-proline which has not been incorporated.
After washing and dissolving in sodium hydroxide solution, the incorporation of the labler in the bone and the amount of total proteins are counted. The effect of the product on the incorporation of proline in the bone in culture is thus evaluated.
Each treated demi-calvaria is compared with the untreated demi-calvaria which serves as control and the T/C ratio is calculated. [formula]
A stimulation of the osseous formation is reflected by a higher incorporation of tritiated proline in the treated demi-calvaria than in the control (T/C>1). An inhibition of the osseous formation is shown by a T/C ratio of <1.
The compounds were tested at concentrations of 10^-4, 10^-6, 10^-8, 10^-10 and 10^-12 M.
6 to 9 experiments were carried out per point.

[2] = test system: forearms of rat foetuses (PTH-stimulated osseous resorption); test: Osseous resorption in tissue culture: 45Ca salted out from PTH-stimulated foetal forearm bones; format: cell-based, rats
Method: as §1
18-day pregnant rats are injected with 150 μcuries of ^45 Ca subcutaneously.
On the 19th day the rats are sacrificed and the foetuses are removed, immersed in a bath of alcohol at 70° are then two baths of PBS and killed by cutting off the head. The two forearms are dissected, the skin, the tendons and the muscles are removed and the cartilaginous extremities are cut off. The forearms are cultured in 24-well culture boxes in the presence of 1.5 ml of MEM for 24 hours for equilibration. At the end of said 24 hours, the medium is replaced by 1.5 ml of BGJB supplemented with 10% of foetal calf serum. The resorption is stimulated in all of the samples by […] of PTH. The bones are cultured for two successive periods of 72 hours each and the culture media are removed to determine the amount of ^45 Ca salted out at the end of each of these two periods. At the end of the second period (7 days after the start of culture), the bones are immersed for 24 hours in 1.5 ml of 10% formic acid and the ^45 Ca salted out from the bones is also determined in a scintillation counter.
The results are expressed for each of the two culture periods by the treated/control ratio calculated in the following way: [formula]
The compounds were tested on this model at concentrations of 5×10^-3 and 5×10^-4 M.

[3] = Bioavailability (Sr2+ by atomic absorption spectrometry); details: rat, in vivo, po, 50 mg/kg; male wistar rats, 50 mg Sr2+ per kg, gelatin mini capsules; compared with strontium chloride; read-out: Absolute bioavailability
Method: the determination was carried out on groups of 5 male wistar rats
administration is in a dose of 50 mg of Sr^2+ per kg in the form of gelatin mini capsules,
the determination was carried out by atomic absorption spectrometry using flame ionisation for the concentrations higher than 1 μg/ml and furnace ionisation for the concentrations lower than 1 μg/ml

[4] = PTH alone (reference of the ratio)

bioavailability [3]: 60.5%
Molecule: CCOC(OC(CO)C(=O)O)C(=O)O (stereo not drawn) [Example 1, Strontium 2-ethoxy-4-hydroxymethyl-3-oxa pentanedioate]
Osseous formation, T/C ratio, maximum value ([1]; 10^-4 M): 1.8034
Osseous formation, T/C ratio, minimum value ([1]; 10^-4 M): 1.2095
Osseous formation, T/C ratio, maximum value ([1]; 10^-6 M): 1.4652
Osseous formation, T/C ratio, minimum value ([1]; 10^-6 M): 0.8433
Osseous formation, T/C ratio, maximum value ([1]; 10^-8 M): 1.2092
Osseous formation, T/C ratio, minimum value ([1]; 10^-8 M): 0.8511
Osseous formation, T/C ratio, maximum value ([1]; 10^-10 M): 1.0974
Osseous formation, T/C ratio, minimum value ([1]; 10^-10 M): 0.8467
Osseous formation, T/C ratio, maximum value ([1]; 10^-12 M): 1.2822
Osseous formation, T/C ratio, minimum value ([1]; 10^-12 M): 0.8988
activity at 100 µM ([1]; Mus musculus, 10^-4 M, 37° C., marked **): 150%
activity at 1 µM ([1]; Mus musculus, 10^-6 M, 37° C.): 107%
activity at 0.01 µM ([1]; Mus musculus, 10^-8 M, 37° C.): 103%
activity at 0.0001 µM ([1]; Mus musculus, 10^-10 M, 37° C.): 97.2%
activity at 1 pM ([1]; Mus musculus, 10^-12 M, 37° C.): 106%
Level of osseous resorption (%), D1-D4 ([2]; 5 10^-3 (M), PTH-stimulated, 9 determinations per point, (c) different from PTH at p < 0.05): 6.4 ± 0.9%
Level of osseous resorption (%), D1-D4 ([2]; 5 10^-4 (M), PTH-stimulated, 9 determinations per point): 14.5 ± 4.1%
activity at 5000 µM ([2]; Rattus norvegicus, 5 10^-3 (M), PTH-stimulated, read-out: Osseous resorption T/C, D1-D4): 45%
activity at 5000 µM ([2]; Rattus norvegicus, 5 10^-3 (M), PTH-stimulated, read-out: Osseous resorption T/C, D4-D7): 6%
activity at 500 µM ([2]; Rattus norvegicus, 5 10^-4 (M), PTH-stimulated, read-out: Osseous resorption T/C, D1-D4): 101%
activity at 500 µM ([2]; Rattus norvegicus, 5 10^-4 (M), PTH-stimulated, read-out: Osseous resorption T/C, D4-D7): 84%
minimal effective concentration ([2]; Rattus norvegicus, in vitro, PTH-stimulated, read-out: Concentration from which anti-resorbing activity is statistically significant): 500 µM

B1: PTH: PTH, used to stimulate the resorption in all of the samples (protein, UniProt P01270 32-115, looked up)
Parathyroid hormone: SVSEIQLMHNLGKHLNSMERVEWLRKKLQDVHNFVALGAPLAPRDAGSQRPRKKEDNVLVESHEKSLGEADKADVNVLTKAKSQ
modifications: Parathyroid hormone
notes: PTH, used to stimulate the resorption in all of the samples
Osseous resorption T/C, D1-D4 [2, 4]: 1.00
Osseous resorption T/C, D4-D7 [2, 4]: 1.00
Level of osseous resorption (%), D1-D4 ([2]; PTH alone, 9 determinations per point, (a) different from control at p < 0.05): 14.3 ± 3.4%
Level of osseous resorption (%), D1-D7 ([2]; PTH alone, 9 determinations per point, (b) different from control at p < 0.0001): 37.0 ± 7.6%
